According to patent publication US20110190336A1, “AZABENZIMIDAZOLONES” (CARA THERAPEUTICS, INC., priority 2008, published 2011):

Molecular target: T1, human DP2 receptor (Homo sapiens, UniProt Q9Y5Y4)
T1 construct: expressed in transfected cells; host or cells: CHO-K1 FLP-In (Invitrogen, catalog no. R758-07), stably transfected
T1 sequence (Q9Y5Y4 1-395): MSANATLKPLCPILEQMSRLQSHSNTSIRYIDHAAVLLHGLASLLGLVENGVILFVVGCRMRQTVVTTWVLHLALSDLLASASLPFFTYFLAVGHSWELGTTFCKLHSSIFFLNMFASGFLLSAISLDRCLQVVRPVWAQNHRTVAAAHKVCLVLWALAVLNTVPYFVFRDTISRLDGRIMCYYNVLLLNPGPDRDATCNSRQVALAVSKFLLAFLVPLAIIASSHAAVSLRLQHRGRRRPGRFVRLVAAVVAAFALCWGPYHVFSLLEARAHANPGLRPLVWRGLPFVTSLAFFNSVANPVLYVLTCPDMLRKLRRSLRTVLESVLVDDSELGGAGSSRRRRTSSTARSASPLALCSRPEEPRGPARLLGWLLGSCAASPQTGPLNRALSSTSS
Assay: Prostaglandin D2 binding inhibition assay (scintillation proximity assay, 3H PGD2, membranes of transfected CHO cells)
Conditions: SPA, 5.5 nM 3H PGD2, CHO-K1 FLP-In human DP2 membranes; upper limit determinable 30 μM; read-out: IC50 ranges for inhibition of PGD2 binding to human DP2
Method: The ability of compounds to inhibit binding of prostaglandin D2 (PGD2) to the human DP2 receptor was measured using a scintillation proximity assay (SPA). Chinese Hamster Ovary FLP-In cell lines (CHO-K1 FLP-In, Invitrogen, catalog no. R758-07) were stably transfected with the human DP2 gene (Genebank: AY507142). Cell lines were grown in suspension in EX-CELL 302 CHO Serum-free medium (Sigma, catalog no. 14324C) supplemented with 1% Fetal Bovine Serum (Invitrogen no. 10099-141), 2 mM L-glutamine (Invitrogen, catalog no. 25030-081) and 0.5 mg/ml Hygromycin B (Invitrogen, catalog no. 10687-010). Cells were collected by centrifugation in a Beckman Coulter Allegra X-12R centrifuge at 150×g for 5 minutes at room temperature.
Membranes from transfected cells were isolated for binding assays. Cell pellets containing approximately 2×10^9 cells were resuspended in 35 ml of cold membrane homogenization buffer (10 mM Tris (Sigma, catalog no. T2663), 1 mM EDTA (Fluka BioChemika no. 03690), and 70 μl of protease inhibitor cocktail (Sigma, catalog no. P8340)). Cells were homogenized with 30 strokes of a dounce homogenizer (Kontes, catalog no. 885303-0040), and the solution centrifuged at 200×g for 10 minutes. The supernatant was transferred to a 50 ml Oakridge tube (Beckman, catalog no. 357000) and centrifuged in a Beckman Coulter Avanti J-26×PI centrifuge with a JA30.50 rotor at 81,000×g for 1 hour at 15° C. The pellet was resuspended in membrane storage buffer (50 mM Tris (Sigma, catalog no. T2663), 2.5 mM EDTA (Fluka BioChemika no. 03690), 5 mM magnesium chloride (Sigma, catalog no. M1028), 100 mg/ml sucrose (Sigma, catalog no. 50389) and a 1:500 dilution of protease inhibitor cocktail (Sigma, catalog no. P8340)) and the total protein was quantitated using a BCA protein measurement kit (Pierce, catalog no. 23225). Aliquots were frozen at −80° C. until used. Compounds were tested for their ability to inhibit PGD2 binding to the purified membranes. 5 μg of the purified membranes, 0.25 mg of wheat germ agglutinin PVT SPA beads (GE Healthcare, catalog no. RPNQ0060) and 5.5 nM of ^3H PGD2 (PerkinElmer, catalog no. NET-616) were mixed in assay buffer ((50 mM Tris (Sigma, catalog no. T2663), 10 mM magnesium chloride (Sigma, catalog no. M1028), 100 mM sodium chloride (Sigma, catalog no. S6546) and 0.1% bovine serum albumin (Sigma, catalog no. A2153)). Using a Multidrop bulk dispenser, 75 μl of the assay mixture was dispensed in Optiplates (PerkinElmer, catalog no. 6007299) containing the compounds to be tested. After a 60 minute incubation period at room temperature, the plates were read on a PerkinElmer Topcount NXT HTS, and individual wells were quantitated as counts per minute (CPM). Data were expressed as a percent of the difference between the maximum and minimum responses. IC50 values (the concentration of compound producing 50% of the maximal response) were determined using a two-parameter non-linear regression algorithm analyzed using CambridgeSoft Bioassay software. Table 2 gives the range of IC50 values for claimed compounds in the binding assay.

Row | Structure (SMILES) | IC50 [nM]
1 | COc1cccc(S(=O)(=O)N2CCC(n3c(=O)n(CC(=O)O)c4cccnc43)CC2)c1 [Compound 78, 2-(3-(1-(3-methoxyphenyl-sulfonyl)piperidin-4-yl)-2-oxo-2,3-dihydro-1H-imidazo[4,5-b]pyridin-1-yl)acetic acid] | 1000 to 10000
2 | O=C(O)Cn1c(=O)n(C2CCN(S(=O)(=O)c3ccccc3)CC2)c2ncccc21 [Compound 79, 2-(2-oxo-3-(1-(phenylsulfonyl)piperidin-4-yl)-2,3-dihydro-1H-imidazo[4,5-b]pyridin-1-yl)acetic acid] | 1000 to 10000
3 | O=C(O)Cn1c(=O)n(C2CCN(S(=O)(=O)c3ccc(Cl)s3)CC2)c2ncccc21 [Compound 80, 2-(3-(1-(5-chlorothiophen-2-yl-sulfonyl)piperidin-4-yl)-2-oxo-2,3-dihydro-1H-imidazo[4,5-b]pyridin-1-yl)acetic acid] | 1000 to 10000
4 | O=C(O)Cn1c(=O)n(C2CCN(S(=O)(=O)c3ccc(-c4ccccc4)cc3)CC2)c2ncccc21 [Compound 81, 2-(3-(1-(biphenyl-4-ylsulfonyl)piperidin-4-yl)-2-oxo-2,3-dihydro-1H-imidazo[4,5-b]pyridin-1-yl)acetic acid] | 1000 to 10000
5 | O=C(O)Cn1c(=O)n(C2CCN(S(=O)(=O)c3cc(Cl)ccc3Cl)CC2)c2ncccc21 [Compound 82, 2-(3-(1-(2,5-dichlorophenylsulfonyl)piperidin-4-yl)-2-oxo-2,3-dihydro-1H-imidazo[4,5-b]pyridin-1-yl)acetic acid] | < 1000
6 | O=C(O)Cn1c(=O)n(C2CCN(S(=O)(=O)c3cc(F)c(Br)cc3F)CC2)c2ncccc21 [Compound 83, 2-(3-(1-(4-bromo-2,5-difluorophenyl-sulfonyl)piperidin-4-yl)-2-oxo-2,3-dihydro-1H-imidazo[4,5-b]pyridin-1-yl)acetic acid] | < 1000
7 | O=C(O)Cn1c(=O)n(C2CCN(S(=O)(=O)c3cc(Cl)cc(Cl)c3)CC2)c2ncccc21 [Compound 84, 2-(3-(1-(3,5-dichlorophenyl-sulfonyl)piperidin-4-yl)-2-oxo-2,3-dihydro-1H-imidazo[4,5-b]pyridin-1-yl)acetic acid] | 1000 to 10000

The remaining lines, values ahead:

Row | IC50 [nM] | Structure (SMILES)
8 | < 1000 | O=C(O)Cn1c(=O)n(C2CCN(S(=O)(=O)c3ccccc3C(F)(F)F)CC2)c2ncccc21 [Compound 85, 2-(2-oxo-3-(1-(2-(trifluoromethyl)phenylsulfonyl)piperidin-4-yl)-2,3-dihydro-1H-imidazo[4,5-b]pyridin-1-yl)acetic acid]
9 | < 1000 | O=C(O)Cn1c(=O)n(C2CCN(S(=O)(=O)c3cc(Cl)c(F)cc3F)CC2)c2ncccc21 [Compound 86, 2-(3-(1-(5-chloro-2,4-difluorophenyl-sulfonyl)piperidin-4-yl)-2-oxo-2,3-dihydro-1H-imidazo[4,5-b]pyridin-1-yl)acetic acid]
10 | < 1000 | O=C(O)Cn1c(=O)n(C2CCN(S(=O)(=O)c3ccc(Br)cc3F)CC2)c2ncccc21 [Compound 87, 2-(3-(1-(4-bromo-2-fluorophenyl-sulfonyl)piperidin-4-yl)-2-oxo-2,3-dihydro-1H-imidazo[4,5-b]pyridin-1-yl)acetic acid]
11 | 1000 to 10000 | O=C(O)Cn1c(=O)n(C2CCN(S(=O)(=O)c3ccc(F)c(Cl)c3)CC2)c2ncccc21 [Compound 88, 2-(3-(1-(3-chloro-4-fluorophenyl-sulfonyl)piperidin-4-yl)-2-oxo-2,3-dihydro-1H-imidazo[4,5-b]pyridin-1-yl)acetic acid]
12 | 1000 to 10000 | COc1ccc(S(=O)(=O)N2CCC(n3c(=O)n(CC(=O)O)c4cccnc43)CC2)cc1 [Compound 89, 2-(3-(1-(4-methoxyphenylsulfonyl)piperidin-4-yl)-2-oxo-2,3-dihydro-1H-imidazo[4,5-b]pyridin-1-yl)acetic acid]
13 | > 30000 | CS(=O)(=O)c1ccc(S(=O)(=O)N2CCC(n3c(=O)n(CC(=O)O)c4cccnc43)CC2)cc1 [Compound 90, 2-(3-(1-(4-(methylsulfonyl)phenyl-sulfonyl)piperidin-4-yl)-2-oxo-2,3-dihydro-1H-imidazo[4,5-b]pyridin-1-yl)acetic acid]
